From ChEMBL document CHEMBL1201862, “PubChem BioAssay data set” (2004)
Active and inactive are the calls of the source.

Experiments:
Prothrombin = Prothrombin (Bos taurus, UniProt P00735); experiment: thrombin inhibition, dose response, biochemical, fluorescence polarization, uHTS hits (AID 602369); assay type: functional
[1] = molecular target: 26S proteasome non-ATPase regulatory subunit 14 (Homo sapiens, UniProt O00487); experiment: inhibition of proteasome subunit RPN11 – biochemical, fluorescence polarization, uHTS hits, confirmation (AID 602368); assay type: functional
[2] = molecular target: 72 kDa type IV collagenase (Homo sapiens, UniProt P08253); experiment: Dose Response validation of uHTS RPN11 inhibitor hits using a MMP-2 Fluorescence assay.; assay type: functional
Protein skinhead-1 = molecular target: T1, Protein skinhead-1 (Caenorhabditis elegans, UniProt P34707); assay type: functional
T1 sequence (P34707 whole entry): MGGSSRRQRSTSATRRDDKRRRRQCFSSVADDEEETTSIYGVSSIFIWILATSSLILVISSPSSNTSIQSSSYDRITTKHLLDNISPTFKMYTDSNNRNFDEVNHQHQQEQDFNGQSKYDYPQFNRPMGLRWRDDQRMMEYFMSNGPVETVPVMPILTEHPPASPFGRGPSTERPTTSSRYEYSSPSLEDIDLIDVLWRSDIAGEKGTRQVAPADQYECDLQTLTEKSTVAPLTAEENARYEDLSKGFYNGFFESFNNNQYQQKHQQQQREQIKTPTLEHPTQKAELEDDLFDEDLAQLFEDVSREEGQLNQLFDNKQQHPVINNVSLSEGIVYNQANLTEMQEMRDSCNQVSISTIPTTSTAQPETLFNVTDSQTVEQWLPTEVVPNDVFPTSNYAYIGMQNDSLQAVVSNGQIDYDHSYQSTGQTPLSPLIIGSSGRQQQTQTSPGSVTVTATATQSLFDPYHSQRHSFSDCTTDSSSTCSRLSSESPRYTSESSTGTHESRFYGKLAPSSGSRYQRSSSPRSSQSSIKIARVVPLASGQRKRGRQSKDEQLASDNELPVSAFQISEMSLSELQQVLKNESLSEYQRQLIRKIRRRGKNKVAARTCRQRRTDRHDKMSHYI

[3] = molecular target: T2, Endoribonuclease toxin MazF (Escherichia coli K-12, UniProt P0AE70); experiment: MazF toxin RNase activators, dose response, biochemical, fluorescence, single-stranded RNA substrate, uHTS hits (AID 588481); assay type: functional
T2 sequence (P0AE70 whole entry): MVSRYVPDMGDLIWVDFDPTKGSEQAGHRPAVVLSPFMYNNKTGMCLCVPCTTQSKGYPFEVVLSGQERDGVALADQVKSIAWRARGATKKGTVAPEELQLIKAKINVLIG

[4] = molecular target: T2, Endoribonuclease toxin MazF; experiment: fluorescent RNA oligo signal without MazF, dose response, counter-screen for MazEF activator project, biochemical, fluorescence, single-stranded RNase substrate (AID 588502); assay type: functional
[5] = molecular target: DNA dC->dU-editing enzyme APOBEC-3G (Homo sapiens, UniProt Q9HC16); experiment: Dose Response confirmation of small molecule APOBEC3G DNA Deaminase Inhibitors via a fluorescence-based single-stranded DNA deaminase assay. [Related pubchem assays (depositor defined):AID493012, AID493028]; assay type: functional
Melanocortin receptor 4 = Melanocortin receptor 4 (Homo sapiens, UniProt P32245); assay type: functional, cell-based;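 further: Cell-based assay with luminescence read-out, confirmatory dose-response testing for agonist activity of biased ligands at MC4R; human U2OS cells with tagged receptor and beta-arrestin; potency of agonists that increase receptor coupling to beta-arrestin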
[6] = HeLa cell cytotoxicity, dose response, cytotoxicity control for MgcRacGAP inhibitor project (AID 624300); assay type: functional
[7] = molecular target: T3, Rac GTPase-activating protein 1 (Homo sapiens, UniProt Q9H0H5); experiment: MgcRacGAP GTPase-activating activity inhibitors, confirmation, biochemical, ADP Hunter fluorescence, primary and confirmatory (AID 624330); assay type: functional
T3 sequence (Q9H0H5 whole entry): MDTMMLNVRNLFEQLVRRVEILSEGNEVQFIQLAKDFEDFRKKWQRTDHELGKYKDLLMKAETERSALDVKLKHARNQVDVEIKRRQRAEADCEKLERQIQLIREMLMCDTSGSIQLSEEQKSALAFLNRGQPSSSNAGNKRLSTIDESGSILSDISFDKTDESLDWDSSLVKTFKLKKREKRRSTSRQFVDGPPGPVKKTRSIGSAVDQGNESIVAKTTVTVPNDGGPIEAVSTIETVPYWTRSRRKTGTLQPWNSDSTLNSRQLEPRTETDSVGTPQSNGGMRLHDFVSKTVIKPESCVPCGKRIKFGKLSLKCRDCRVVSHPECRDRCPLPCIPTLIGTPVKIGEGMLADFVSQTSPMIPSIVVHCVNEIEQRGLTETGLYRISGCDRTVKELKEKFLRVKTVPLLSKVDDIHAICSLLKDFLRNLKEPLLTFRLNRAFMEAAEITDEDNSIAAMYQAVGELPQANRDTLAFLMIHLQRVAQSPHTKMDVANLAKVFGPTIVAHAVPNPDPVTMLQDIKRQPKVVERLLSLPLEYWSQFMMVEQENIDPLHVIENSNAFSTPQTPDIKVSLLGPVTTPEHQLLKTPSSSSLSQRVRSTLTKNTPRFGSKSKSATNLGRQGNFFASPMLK

H9c2 = experiment: cells; assay type: functional, cell-based; conditions: Rattus norvegicus, H9c2, Myocardium;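 further: confirmatory concentration-response retest of ultra-high-throughput screening hits for modulation of myocardial damage; cell death induced by hydrogen peroxide oxidative stress; compound pretreatment for 60 min then peroxide exposure for 2 h; potency is for protecting the cells against peroxide damage rather than for killing them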

Sequence of Melanocortin receptor 4 (P32245 whole entry): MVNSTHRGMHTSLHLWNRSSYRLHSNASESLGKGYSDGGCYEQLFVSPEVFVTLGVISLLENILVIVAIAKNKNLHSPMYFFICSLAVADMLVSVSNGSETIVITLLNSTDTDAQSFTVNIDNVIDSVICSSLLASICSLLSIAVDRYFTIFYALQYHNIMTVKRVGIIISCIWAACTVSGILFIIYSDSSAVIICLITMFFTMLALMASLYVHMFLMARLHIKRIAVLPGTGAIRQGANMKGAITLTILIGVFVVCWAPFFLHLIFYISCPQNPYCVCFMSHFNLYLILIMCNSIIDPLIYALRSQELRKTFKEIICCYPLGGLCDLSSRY
Sequence of 26S proteasome non-ATPase regulatory subunit 14 (O00487 whole entry): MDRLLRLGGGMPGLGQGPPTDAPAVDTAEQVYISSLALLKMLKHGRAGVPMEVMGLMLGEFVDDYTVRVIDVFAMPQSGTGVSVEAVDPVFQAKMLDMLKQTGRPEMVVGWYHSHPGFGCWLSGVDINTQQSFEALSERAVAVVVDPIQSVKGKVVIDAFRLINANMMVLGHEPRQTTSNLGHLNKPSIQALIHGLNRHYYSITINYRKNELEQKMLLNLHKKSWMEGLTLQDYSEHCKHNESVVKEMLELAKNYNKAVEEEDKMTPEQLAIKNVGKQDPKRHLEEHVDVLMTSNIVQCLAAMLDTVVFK
Sequence of 72 kDa type IV collagenase (P08253 whole entry): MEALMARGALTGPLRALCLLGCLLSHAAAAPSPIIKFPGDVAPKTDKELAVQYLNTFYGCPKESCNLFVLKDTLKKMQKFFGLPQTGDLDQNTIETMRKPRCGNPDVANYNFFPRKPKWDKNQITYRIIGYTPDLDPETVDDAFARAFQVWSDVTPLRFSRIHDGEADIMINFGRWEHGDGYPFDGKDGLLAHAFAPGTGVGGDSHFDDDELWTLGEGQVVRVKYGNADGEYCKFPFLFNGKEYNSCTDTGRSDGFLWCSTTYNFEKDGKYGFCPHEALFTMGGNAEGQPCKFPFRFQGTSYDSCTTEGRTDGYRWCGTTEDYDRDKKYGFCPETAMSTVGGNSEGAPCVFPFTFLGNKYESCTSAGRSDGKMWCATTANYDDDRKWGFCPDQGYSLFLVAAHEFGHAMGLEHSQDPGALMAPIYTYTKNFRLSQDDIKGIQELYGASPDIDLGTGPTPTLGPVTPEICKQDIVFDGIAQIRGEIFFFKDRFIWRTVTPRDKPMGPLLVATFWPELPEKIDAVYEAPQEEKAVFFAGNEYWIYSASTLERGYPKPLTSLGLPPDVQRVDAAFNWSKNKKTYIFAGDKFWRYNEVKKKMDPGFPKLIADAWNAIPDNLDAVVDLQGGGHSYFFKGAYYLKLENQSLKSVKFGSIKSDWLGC
Sequence of DNA dC->dU-editing enzyme APOBEC-3G (Q9HC16 whole entry): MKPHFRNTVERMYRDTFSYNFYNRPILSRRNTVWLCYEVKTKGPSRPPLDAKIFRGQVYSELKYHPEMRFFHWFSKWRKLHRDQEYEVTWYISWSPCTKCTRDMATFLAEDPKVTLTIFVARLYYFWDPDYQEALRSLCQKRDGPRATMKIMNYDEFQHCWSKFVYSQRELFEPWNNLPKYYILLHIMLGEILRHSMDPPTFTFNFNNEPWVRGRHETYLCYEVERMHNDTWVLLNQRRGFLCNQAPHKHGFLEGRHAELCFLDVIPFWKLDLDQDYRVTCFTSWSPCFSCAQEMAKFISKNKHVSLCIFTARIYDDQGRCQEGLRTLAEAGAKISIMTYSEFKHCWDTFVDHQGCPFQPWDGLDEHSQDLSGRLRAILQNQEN

CC(C)Oc1ccc(/C=C(\NC(=O)/C=C/c2ccco2)C(=O)NCCc2nc3ccccc3[nH]2)cc1
IC50 (Prothrombin): 55.6 µM (active)
IC50 [1]: 57.5 µM (active)
IC50 [2]: > 100 µM (inactive)

COc1ccc(-c2ccc(/C=C3/C(=N)N4C(C)=CSC4=NC3=O)o2)c([N+](=O)[O-])c1
IC50 (Protein skinhead-1): > 100 µM (inactive)
EC50 [3]: > 99 µM (inactive)
EC50 [4]: 29 µM (inactive)

COc1ccc(-c2nc3ccccc3c(=O)n2NC(=S)N(C)C)cc1
IC50 [5]: 35.1 µM (active)

CC(=O)c1ccc(N2CCN(C(=O)c3cc4c(C)nc5ccccc5c4o3)CC2)cc1
EC50 [3]: > 99 µM (inactive)
EC50 [4]: 30.7 µM (inactive)

Cc1ccccc1C(=O)/C=C1/SCC(=O)N1C
IC50 (Prothrombin): 37.3 µM (active)
IC50 [1]: 18.9 µM (active)
IC50 [2]: > 100 µM (inactive)

CC1(C)CC(=O)C(=NNc2cc3c(cc2[N+](=O)[O-])OCCO3)C(=O)C1
EC50 [3]: > 99 µM (inactive)
EC50 [4]: 29.6 µM (inactive)

Cc1cccc(NC(=S)NC(=O)C(c2ccccc2)c2ccccc2)n1
EC50 (Melanocortin receptor 4): > 89.2 µM (inactive)

CN(C)c1ccc(Sc2ccc3nc(N)nc(N)c3c2)cc1
CC50 [6]: 100 µM (active)
IC50 [7]: 50.2 µM (active)

COc1ccc(-c2cc(NC(C)=O)c3ncc(-c4ccc(OC)c(OC)c4)n3c2)cc1OC
IC50 (H9c2): > 79 µM (inactive)
EC50 (Melanocortin receptor 4): > 89.2 µM (inactive)

Cc1cccnc1C(c1ccc(F)cc1)N(C)C(=O)C1CCN(CCOc2ccc(Cl)cc2Cl)CC1 (stereo not given)
EC50 (Melanocortin receptor 4): > 89.2 µM (inactive)
